The test system of one experiment is male C57BL/6J mouse. Nature of the experiment: 2-days continuous subcutaneous administration test (feeding suppressive activity). The following applies: 10 nmol/kg/day, subcutaneous Alzet pump, 2-days cumulative food consumption, control (solvent alone) = 0%. It counts as in vivo. An outline of the steps:
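Male C57BL/6J mice, 8-9 weeks, given test compound at 10 nmol/kg/day by subcutaneously implanted osmotic pump (50% DMSO vehicle), housed singly with free food access. Cumulative 2-day food consumption measured; suppression rate (%) calculated relative to vehicle-only controls.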

The next experiment deals with T1, human glucagon R (Homo sapiens, UniProt P47871).
T1 construct: expressed in transfected cells; host or cells: CHO-K1 (CRE-LUC/CHO-K1 reporter cells)
Nature of the experiment: Reporter assay of human glucagon R agonist activity, rise in intracellular cAMP as index (hGlucagonR/CRE-LUC/CHO-K1 cells). The class given is cell-based. The following applies: luciferase reporter; 10 nM glucagon = 100%, DMSO = 0%; 4 hours incubation; read-out: Agonist activity (EC50) hGCGR. From the text: Evaluation of agonist activity against human GIPR, human GLP-1R and human glucagon R using rise in intracellular cAMP concentration as index
(2) Construction of Reporter Plasmid-Expressing Cell
The luciferase reporter gene having an upstream cAMP response sequence was introduced to CHO-K1 cells to construct CRE-LUC/CHO-K1 cells.
(7) Construction of Expression Plasmid for the Human Glucagon R Gene
The human glucagon R gene having a sequence identical to the sequence of GenBank Accession No. NM_000160 was cloned into pMSRα-neo vector to prepare hGlucagonR/pMSRα-neo.
(8) Introduction of the Human Glucagon R Gene into CRE-LUC/CHO-K1 Cell and Obtainment of Expressing Cell […]
The hGIPR/CRE-LUC/CHO-K1 cells were inoculated at a cell density of 25 μL/well (5×10^4 cells/well) to a 384-well white plate (Corning), and cultured overnight in Ham F12 medium containing 10% fetal bovine serum, 100 U/mL penicillin and 100 μg/mL streptomycin in a CO2 incubator of 37° C. […] After 30 minutes, the luciferase activity was measured using a plate reader Envision (PerkinElmer). […] The GIPR agonist activity was calculated with a rise in intracellular cAMP concentration as an index.
The glucagon R agonist activity was assayed in the same way as above using the hGlucagonR/CRE-LUC/CHO-K1 cells. […] The glucagon agonist activity was calculated with a rise in intracellular cAMP concentration as an index.
(In general: A reporter such as luciferase makes a cellular process visible.)

Experiment [1] concerns Diet-induced obesity (DIO) male C57BL/6J mice. Nature of the experiment: 2-weeks continuous subcutaneous administration study in DIO mice (anti-obesity activity). The conditions noted are these: 1 nmol/kg/day, subcutaneous Alzet pump, 2 weeks after start of administration; rate of weight loss, control group regarded as 0%. It counts as in vivo, mouse. How it is done: 2-Weeks Continuous Subcutaneous Administration Study in DIO Mice
The anti-obesity activity of a test compound was examined by the method described below.
Diet-induced obesity (DIO) mice were prepared by feeding male C57BL/6J mice with high-fat diet (D12451: Research Diets, Inc.). The test compound was dissolved in a solvent (50% DMSO) so that sustained release would occur at 1 nmol/kg/day, and the solution was filled in the Alzet Pump (DURECT Corporation, model: 1002). The pump thus filled with the solution to be administered was immersed in physiological saline for priming, and then used. The pump was embedded by the following method. Each male DIO-C57BL/6J mouse at 35-37 weeks of age (20-26° C., allowed to take food and water ad libitum; 12-hour bright-12-hour dark cycle) was anesthetized; the skin in the upper back thereof was incised, and the above-mentioned pump was embedded subcutaneously; the incision was sutured. After weighing, this mouse was returned to the rearing cage (reared alone), and given previously weighed food; the body weight was measured every 1 to 3 days after the start of administration. The anti-obesity activity of each test compound was evaluated on the basis of the rate of weight loss 2 weeks after the start of administration, with the rate of weight loss in a control group receiving administration of the solvent alone regarded as 0%.

Square brackets hold non-standard residues; d marks the D form. Peptide text beside a SMILES is read from it. NMeY = CN[C@@H](Cc1ccc(O)cc1)C(=O)O; αMeF = C[C@](N)(Cc1ccccc1)C(=O)O; Aib = CC(C)(N)C(=O)O Where only a bound is given, the exact number is not on record here.

T1 sequence (P47871 26-477): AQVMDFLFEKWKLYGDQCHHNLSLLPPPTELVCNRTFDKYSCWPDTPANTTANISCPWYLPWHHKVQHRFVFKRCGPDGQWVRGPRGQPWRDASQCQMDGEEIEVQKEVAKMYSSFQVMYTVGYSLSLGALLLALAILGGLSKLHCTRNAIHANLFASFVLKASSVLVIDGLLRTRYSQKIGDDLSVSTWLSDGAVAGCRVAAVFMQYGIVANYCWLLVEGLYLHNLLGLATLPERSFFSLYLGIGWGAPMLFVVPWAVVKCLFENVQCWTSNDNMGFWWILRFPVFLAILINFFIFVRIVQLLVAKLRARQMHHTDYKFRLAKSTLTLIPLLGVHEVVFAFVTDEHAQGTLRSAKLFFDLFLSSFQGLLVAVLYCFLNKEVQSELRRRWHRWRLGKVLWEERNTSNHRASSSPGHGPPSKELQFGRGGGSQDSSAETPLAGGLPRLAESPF

In general, EC50 refers to the concentration needed to bring the measured effect to its halfway point. For `CC[C@H](C)[C@H](NC(=O)C(C)(C)NC(=O)[C@H](Cc1ccc(O)cc1)NC(=O)[C@H](CC(=O)O)NC(=O)[C@H](CO)NC(=O)[C@@H](NC(=O)[C@](C)(Cc1ccccc1)NC(=O)[C@@H](NC(=O)CNC(=O)[C@H](CCC(=O)O)NC(=O)C(C)(C)NC(=O)[C@H](Cc1ccc(O)cc1)NC)[C@@H](C)O)[C@@H](C)O)C(=O)NC(C)(C)C(=O)N[C@@H](CC(C)C)C(=O)N[C@@H](CC(=O)O)C(=O)N[C@@H](CCCCN)C(=O)N[C@@H](CCC(N)=O)C(=O)N[C@@H](C)C(=O)N[C@@H](CCC(N)=O)C(=O)N[C@@H](C)C(=O)N[C@@H](CCC(=O)O)C(=O)N[C@@H](Cc1ccccc1)C(=O)N[C@H](C(=O)N[C@@H](CCCCN)C(=O)N[C@@H](Cc1c[nH]c2ccccc12)C(=O)N[C@@H](CC(C)C)C(=O)N[C@@H](CC(C)C)C(=O)N[C@@H](CCCCN)C(=O)NCC(=O)NCC(=O)N1CCC[C@H]1C(=O)N[C@@H](CO)C(=O)N[C@@H](CO)C(=O)NCC(=O)N[C@@H](C)C(=O)N1CCC[C@H]1C(=O)N1CCC[C@H]1C(=O)N1CCC[C@H]1C(=O)N[C@@H](CO)C(=O)N[C@@H](CCCCN)C(N)=O)C(C)C` [Example 23] (H-[NMeY][Aib]EGT[αMeF]TSDY[Aib]I[Aib]LDKQAQAEFVKWLLKGGPSSGAPPPSK-NH2), the “Food intake suppression (%)” value with male C57BL/6J mouse is given as 52.62%. Further, on human glucagon R, the EC50 was greater than 1000 nM.
As to `CC[C@H](C)[C@H](NC(=O)C(C)(C)NC(=O)[C@H](Cc1ccc(O)cc1)NC(=O)[C@H](CC(=O)O)NC(=O)[C@H](CO)NC(=O)[C@@H](NC(=O)[C@](C)(Cc1ccccc1)NC(=O)[C@@H](NC(=O)CNC(=O)[C@H](CCC(=O)O)NC(=O)C(C)(C)NC(=O)[C@@H](N)Cc1ccc(O)cc1)[C@@H](C)O)[C@@H](C)O)C(=O)NC(C)(C)C(=O)N[C@@H](CC(C)C)C(=O)N[C@@H](CC(=O)O)C(=O)N[C@@H](CCCCN)C(=O)N[C@@H](CCC(N)=O)C(=O)N[C@@H](C)C(=O)N[C@@H](CCC(N)=O)C(=O)N[C@@H](C)C(=O)N[C@@H](CCC(=O)O)C(=O)N[C@@H](Cc1ccccc1)C(=O)N[C@H](C(=O)N[C@@H](CCCCN)C(=O)N[C@@H](Cc1c[nH]c2ccccc12)C(=O)N[C@@H](CC(C)C)C(=O)N[C@@H](CC(C)C)C(=O)N[C@@H](CCCCN)C(=O)NCC(=O)NCC(=O)N1CCC[C@H]1C(=O)N[C@@H](CO)C(=O)N[C@@H](CO)C(=O)NCC(=O)N[C@@H](C)C(=O)N1CCC[C@H]1C(=O)N1CCC[C@H]1C(=O)N1CCC[C@H]1C(=O)N[C@@H](CO)C(=O)N[C@@H](CCCCN)C(N)=O)C(C)C` [Example 2] (H-Y[Aib]EGT[αMeF]TSDY[Aib]I[Aib]LDKQAQAEFVKWLLKGGPSSGAPPPSK-NH2), the “Food intake suppression (%)” value in the experiment with male C57BL/6J mouse was 64.80%. In experiment [1], the “Change in body weight” value is −16.3.
Consider `CC(C)C[C@H](NC(=O)[C@H](CC(C)C)NC(=O)[C@H](Cc1c[nH]c2ccccc12)NC(=O)[C@H](CCCCN)NC(=O)[C@@H](NC(=O)[C@H](Cc1ccccc1)NC(=O)[C@H](CCC(=O)O)NC(=O)[C@H](CCC(N)=O)NC(=O)[C@H](CCC(N)=O)NC(=O)[C@H](C)NC(=O)[C@H](CCC(N)=O)NC(=O)[C@H](CCCCN)NC(=O)[C@H](CC(=O)O)NC(=O)[C@H](CC(C)C)NC(=O)[C@H](Cc1ccc(O)cc1)NC(=O)[C@H](CCCCN)NC(=O)C(C)(C)NC(=O)[C@H](Cc1ccc(O)cc1)NC(=O)[C@H](CC(=O)O)NC(=O)[C@H](CO)NC(=O)[C@@H](NC(=O)[C@](C)(Cc1ccccc1)NC(=O)[C@@H](NC(=O)CNC(=O)[C@H](CCC(=O)O)NC(=O)C(C)(C)NC(=O)[C@@H](N)Cc1ccc(O)cc1)[C@@H](C)O)[C@@H](C)O)C(C)C)C(=O)N[C@@H](CCCCN)C(=O)NCC(=O)NCC(=O)N1CCC[C@H]1C(=O)N[C@@H](CO)C(=O)N[C@@H](CO)C(=O)NCC(=O)N[C@@H](C)C(=O)N1CCC[C@H]1C(=O)N1CCC[C@H]1C(=O)N1CCC[C@H]1C(=O)N[C@@H](CO)C(N)=O` [Example 26] (H-Y[Aib]EGT[αMeF]TSDY[Aib]KYLDKQAQQEFVKWLLKGGPSSGAPPPS-NH2), for which the “Food intake suppression (%)” value with male C57BL/6J mouse turned out to be 53.06%. Further, the “Change in body weight” value in experiment [1] is −16.2.
